# What was measured:
# [1] = Biodistribution in healthy rats; format: in vivo, Sprague-Dawley rats; details: for Biodistribution: Blood / Biodistribution: Brain / Biodistribution: Heart / Biodistribution: Intestine / Biodistribution: Kidneys / Biodistribution: Liver / Biodistribution: Lungs / Biodistribution: Muscle / Biodistribution: Spleen / Biodistribution: Stomach / Biodistribution: Urine: healthy rats
# Procedure: Before injection, ^99mTc complexes were purified using a reversed-phase C18 Sep-Pack cartridge to remove the excess of unlabeled ligands. After purification, the activity recovered was further diluted with PBS to obtain a final solution that is <0.5% in EtOH content. The RCP and the stability of the purified complexes were evaluated prior to in vivo administration and for the succeeding 18 h.
# Biodistribution in healthy rats. Biodistribution in healthy rats was performed on complex 1, complex 2 and complex 9 in order to evaluate their pharmacokinetic profile and elimination pathways as well as their resistance to in vivo metabolism. Female Sprague-Dawley rats weighing 180-200 g were anesthetized with an intramuscular injection of a mixture of Zoletil (40 mg/kg) and xylazine (2 mg/kg). A jugular vein was surgically exposed and 100 μl (300-370 kBq) of the solution containing the selected [^99mTc(N)(PNP3OH)]-compound was injected. The rats (n=3) were scarified by cervical dislocation at different times after injection. The blood was withdrawn from the heart with a syringe immediately after death and quantified. Organs were excised, rinsed in saline, weighed, and the activity was counted in a Nal well counter.
# [2] = Sera and homogenates stability; format: in vitro ADME, human and rat; details: human and rat sera, 37° C., 3 h
# Procedure: Sera and Homogenates Stability.
# The in vitro stability of complex 1, complex 2, complex 9 and complex 11 was evaluated by monitoring the RCP at different time points using the following procedures. In a propylene test tube 50 μl of purified [^99mTc(N)(PNP3OH)]-compound were added to: a) 450 μl of human serum, b) 450 μl of rat serum, c) 450 μl of homogenate of rat liver and d) 450 μl of homogenate of rat kidneys. The resulting mixture was incubated at 37° C. for 4 h.
# The sample was loaded onto a cartridge, preconditioned with MeOH (1 ml) and equilibrated with water (1 ml), and rinsed with MeOH 5% (3 ml). The activity was eluted with a mixture of EtOH/saline 60% (1 ml). Each fraction was collected and the activity measured using a counter (Cobra II, Packard) to determinate the elution profile. 80% of the loaded activity was collected in the elution fraction. An aliquot of this solution (100 μl) was analyzed by HPLC to assess the degradation of the ^99mTc(N)-complexes (FIG. 11).
# [3] = Stability in the reaction solution as function of pH (FIG. 5); format: physicochemical
# Procedure: The variation of (%)RCY of complex 1 and complex 2 over the time (30 min vs 18 h), at different conditions, is shown in FIG. 5. […] Alternatively, free PNP3OH was directly used.
# [4] = Challenge reactions (transchelation) with excess Cys, GSH or EDTA, RCP by HPLC; format: physicochemical; details: 10 mM
# Procedure: The transchelation studies were performed for some compounds monitoring by HPLC the radiochemical purity (RCP) of the complexes in presence of an excess of exchanging ligands over the time. The experiments were performed in triplicate.
# Challenge experiments were carried out on the purified [^99mTc(N)(PNP3OH)]-labeled small size compounds (complex 1, complex 2, complex 9 and complex 10) using an excess of glutathione (GSH) or Cys. An aliquot (50 μl) of an aqueous stock solution of cysteine hydrochloride (10 mM; 1 mM) was added to a propylene test tube containing PB (250 μl, 0.2 M; pH 7.4), water (100 μl) and the selected [^99mTc(N)(PNP3OH)]-compound (100 μl). The mixture was vortexed and incubated at 37° C. for 24 h. A control reaction containing an equal volume of water, instead of cysteine hydrochloride, was studied in parallel. At 30 min, 1, 3 and 24 h, aliquots of the reaction mixture were withdrawn and analyzed by HPLC chromatography. A similar procedure was applied using GSH (50 μl, 10 mM) as challenge ligand.
# For [^99mTc(N)(PNP3OH)(Cys-Gly-Lys-Gly-ApoMb)]^+ (“Cys-Gly-Lys-Gly” disclosed as SEQ ID NO: 1) additional experiments were conducted using EDTA (50 μl, 10 mM) as exchanging ligand.
molecule,measurement,setting,value
"CC(=O)NC1C[S][99Tc](#[N])[O]C1=O.COCCN(CCP(CO)CO)CCP(CO)CO [Complex 1, [^99mTc(N)(PNP3OH)(CysNAc)]]",Pharmacokinetic profile: blood clearance,"[1]; healthy animals, within the first 60 min p.i.",rapid blood clearance
same,Biodistribution: Blood,[1]; 2 min,1.68 ± 0.02 % IA/g
same,Biodistribution: Brain,[1]; 2 min,0.10 ± 0.01 % IA/g
same,Biodistribution: Heart,[1]; 2 min,0.54 ± 0.09 % IA/g
same,Biodistribution: Intestine,[1]; 2 min,0.70 ± 0.02 % IA/g
same,Biodistribution: Kidneys,[1]; 2 min,4.73 ± 0.37 % IA/g
same,Biodistribution: Liver,[1]; 2 min,1.73 ± 0.02 % IA/g
same,Biodistribution: Lungs,[1]; 2 min,1.11 ± 0.22 % IA/g
same,Biodistribution: Muscle,[1]; 2 min,0.32 ± 0.02 % IA/g
same,Biodistribution: Spleen,[1]; 2 min,0.40 ± 0.07 % IA/g
same,Biodistribution: Stomach,[1]; 2 min,0.39 ± 0.05 % IA/g
same,Biodistribution: Blood,[1]; 10 min,0.96 ± 0.03 % IA/g
same,Biodistribution: Brain,[1]; 10 min,0.05 ± 0.01 % IA/g
same,Biodistribution: Heart,[1]; 10 min,0.27 ± 0.01 % IA/g
same,Biodistribution: Intestine,[1]; 10 min,2.85 ± 0.67 % IA/g
same,Biodistribution: Kidneys,[1]; 10 min,4.07 ± 0.67 % IA/g
same,Biodistribution: Liver,[1]; 10 min,2.27 ± 0.01 % IA/g
same,Biodistribution: Lungs,[1]; 10 min,0.68 ± 0.03 % IA/g
same,Biodistribution: Muscle,[1]; 10 min,0.14 ± 0.01 % IA/g
same,Biodistribution: Spleen,[1]; 10 min,0.26 ± 0.00 % IA/g
same,Biodistribution: Stomach,[1]; 10 min,0.41 ± 0.09 % IA/g
same,Biodistribution: Urine,[1]; 10 min,31.28 ± 4.07 % IA/g
same,Biodistribution: Blood,[1]; 30 min,0.43 ± 0.09 % IA/g
same,Biodistribution: Brain,[1]; 30 min,0.04 ± 0.01 % IA/g
same,Biodistribution: Heart,[1]; 30 min,0.17 ± 0.07 % IA/g
same,Biodistribution: Intestine,[1]; 30 min,5.46 ± 3.28 % IA/g
same,Biodistribution: Kidneys,[1]; 30 min,2.47 ± 0.04 % IA/g
same,Biodistribution: Liver,[1]; 30 min,1.28 ± 0.03 % IA/g
same,Biodistribution: Lungs,[1]; 30 min,0.38 ± 0.15 % IA/g
same,Biodistribution: Muscle,[1]; 30 min,0.11 ± 0.00 % IA/g
same,Biodistribution: Spleen,[1]; 30 min,0.10 ± 0.01 % IA/g
same,Biodistribution: Stomach,[1]; 30 min,0.35 ± 0.02 % IA/g
same,Biodistribution: Blood,[1]; 60 min,0.11 ± 0.00 % IA/g
same,Biodistribution: Brain,[1]; 60 min,0.01 ± 0.00 % IA/g
same,Biodistribution: Heart,[1]; 60 min,0.06 ± 0.01 % IA/g
same,Biodistribution: Intestine,[1]; 60 min,10.07 ± 0.26 % IA/g
same,Biodistribution: Kidneys,[1]; 60 min,1.15 ± 0.12 % IA/g
same,Biodistribution: Liver,[1]; 60 min,0.99 ± 0.13 % IA/g
same,Biodistribution: Lungs,[1]; 60 min,0.14 ± 0.01 % IA/g
same,Biodistribution: Muscle,[1]; 60 min,0.08 ± 0.03 % IA/g
same,Biodistribution: Spleen,[1]; 60 min,0.10 ± 0.01 % IA/g
same,Biodistribution: Stomach,[1]; 60 min,0.24 ± 0.12 % IA/g
same,Biodistribution: Urine,[1]; 60 min,58.89 ± 2.27 % IA/g
same,Biodistribution: Blood,[1]; 120 min,0.06 ± 0.01 % IA/g
same,Biodistribution: Brain,[1]; 120 min,0.01 ± 0.00 % IA/g
same,Biodistribution: Heart,[1]; 120 min,0.02 ± 0.00 % IA/g
same,Biodistribution: Intestine,[1]; 120 min,0.57 ± 0.05 % IA/g
same,Biodistribution: Kidneys,[1]; 120 min,0.77 ± 0.26 % IA/g
same,Biodistribution: Liver,[1]; 120 min,0.54 ± 0.05 % IA/g
same,Biodistribution: Lungs,[1]; 120 min,0.10 ± 0.01 % IA/g
same,Biodistribution: Muscle,[1]; 120 min,0.02 ± 0.00 % IA/g
same,Biodistribution: Spleen,[1]; 120 min,0.09 ± 0.01 % IA/g
same,Biodistribution: Stomach,[1]; 120 min,0.25 ± 0.06 % IA/g
same,Biodistribution: Urine,[1]; 120 min,55.74 ± 14.87 % IA/g
same,Sera stability,[2],high sera stability
same,Stability in the reaction solution,[3]; pH 7.4,stable within 18 h
same,Stability in the reaction solution,[3]; pH 9,a progressive degradation was observed
[^99mTc(N)(PNP3OH)(Cys-Gly-Lys-Gly-ApoMb)]^+,"Stability in challenge with excess of Cys, GSH and EDTA",[4],do not affect the stability

# Reference: US11160886B2, “Method for labeling of sensitive and thermosensitive targeting biomolecules with technetium based compounds” (BRACCO IMAGING SPA, priority 2016, dated 2021)
